In PMC10831936 (iScience, 2024):
Entries after “also recorded” stand apart in the source; their conditions may differ.

Assays:
ERBB4 = ERBB4 (Homo sapiens, UniProt Q15303); test: Split TEV firefly luciferase assay, ERBB4; assay type: cell-based; conditions: PC12 cells; constant EGF-like domain 10 ng/mL; luciferase readout
Experimental: (§1) 50,000 PC12 cells were seeded per 96-well onto poly-L-lysin (PLL)-coated plates and transfected the following day (day in vitro 1, DIV1) with assay plasmids using Lipofectamine 3000 (Thermo Fisher Scientific). For split TEV assays, plasmids (pcDNA3 or pTag4C backbone) encoding receptor-NTEV-tcs-GV, GRB2-SH2-CTEV (for ERBB receptors) or ARBB2-1-383-CTEV (for HTR2A) (all 10 ng/well), and the p10xUAS-luc2 reporter plasmid (10 ng/well) were used. For pathway assays, the receptor plasmids (15 ng/well) and pathway reporter plasmids (15 ng/well) pEGR1p-luc2 for monitoring MAPK signaling, pCRE-CMVmin-luc2 for monitoring cAMP/Ca^2+ signaling, or p6xNFAT-CMVmin-luc2 for Ca^2+ signaling were used. Transient transfections were conducted according to the manufacturer’s instructions. On DIV2, cells were starved in medium containing 1% FCS for 16 h. […] In the case of antagonist assays, compounds were added at increasing doses together with the stimulus. Cells were lysed in 1x passive lysis buffer (Promega) and subjected to a firefly luciferase assay using a self-made substrate for firefly luciferase.[100] Luciferase activity was analyzed in a Mithras LB 940 Multimode Microplate Reader (Berthold Technologies). All assays were run in 96-well plates using six replicates per condition.

phospho-ERK1/2 [1] = test: Western blot of p-ERK1/2 in T-47D cells (EGFld stimulated); assay type: cell-based; conditions: Homo sapiens, T47D, compound 1 h, EGFld 10 ng/mL 5 min, read-out: p-ERK1/2 IC50 (ERBB4), Western blot quantification
Experimental: (§2) Phosphorylation levels of EGFR were assessed[37] in A549 cells, while phosphorylation levels of ERBB4 were assessed in T-47D cells. Before stimulation experiments were performed, both cell types were starved overnight in 1% FCS and compounds were incubated for 1 h. […] For lysis, cells were washed 1x with PBS and lysed in a Triton X- lysis buffer (1% Triton X-100, 50 mM Tris pH7.5, 150 mM NaCl, 1 mM EGTA) containing the Complete protease inhibitor cocktail (Roche) and PhosSTOP phosphatase inhibitor (Roche). Briefly, cells were lysed and kept on ice for 10 min, sonicated 3x for 10 s at 4°C, and denatured for 10 min at 70°C. The Mini-PROTEAN Tetra Electrophoresis System and Trans-Blot Turbo Botting System (both Bio-Rad) were used for running and blotting protein gels. […] Total EGFR and ERBB4 protein levels were determined using an anti-EGFR antibody (RRID: AB_10920395) (clone A-10, dilution 1:1000, sc-373746, Santa Cruz Biotechnology) and an anti-ERBB4 antibody (RRID: AB_731579) (clone E200, dilution 1:1000, ab32375, Abcam). […] Tubulin levels were determined using an anti-Tubulin antibody (RRID: AB_477579) (dilution 1:2000, No. T 5168, Sigma-Aldrich). For quantification, phosphorylation levels of p-EGFR relative to EGFR as well as p-ERBB4 relative to ERBB4 were calculated using the Lukemiller protocol (http://lukemiller.org/index.php/2010/11/analyzing-gels-and-western-blots-with-image-j/). […]

HTR2A = HTR2A (Homo sapiens, UniProt P28223); test: ERBBprofiler barcoded split TEV assay, HTR2A
HTR2A, sequence (P28223 whole entry): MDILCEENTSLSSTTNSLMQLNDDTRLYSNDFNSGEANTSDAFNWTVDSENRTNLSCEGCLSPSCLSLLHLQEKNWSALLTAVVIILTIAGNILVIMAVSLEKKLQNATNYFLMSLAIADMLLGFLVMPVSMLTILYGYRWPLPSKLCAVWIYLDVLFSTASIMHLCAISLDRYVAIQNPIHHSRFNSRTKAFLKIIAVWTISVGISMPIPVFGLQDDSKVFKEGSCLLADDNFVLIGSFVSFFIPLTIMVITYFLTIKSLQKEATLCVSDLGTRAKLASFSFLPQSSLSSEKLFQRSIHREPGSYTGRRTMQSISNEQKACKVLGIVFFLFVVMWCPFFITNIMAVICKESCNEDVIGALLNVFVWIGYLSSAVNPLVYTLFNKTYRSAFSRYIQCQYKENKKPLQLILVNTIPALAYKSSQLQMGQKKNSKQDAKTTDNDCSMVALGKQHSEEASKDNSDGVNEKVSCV

phospho-ERBB4 = biological target: T1, phospho-ERBB4 (Homo sapiens, UniProt Q15303); test: Western blot of p-ERBB4 in T-47D cells; assay type: cell-based; conditions: compound 1 h, EGFld 10 ng/mL 5 min, read-out: p-ERBB4 IC50, Western blot quantification
T1 construct: T-47D cells, which endogenously express ERBB4; host or cells: T-47D cells
T1 sequence (Q15303 26-1308): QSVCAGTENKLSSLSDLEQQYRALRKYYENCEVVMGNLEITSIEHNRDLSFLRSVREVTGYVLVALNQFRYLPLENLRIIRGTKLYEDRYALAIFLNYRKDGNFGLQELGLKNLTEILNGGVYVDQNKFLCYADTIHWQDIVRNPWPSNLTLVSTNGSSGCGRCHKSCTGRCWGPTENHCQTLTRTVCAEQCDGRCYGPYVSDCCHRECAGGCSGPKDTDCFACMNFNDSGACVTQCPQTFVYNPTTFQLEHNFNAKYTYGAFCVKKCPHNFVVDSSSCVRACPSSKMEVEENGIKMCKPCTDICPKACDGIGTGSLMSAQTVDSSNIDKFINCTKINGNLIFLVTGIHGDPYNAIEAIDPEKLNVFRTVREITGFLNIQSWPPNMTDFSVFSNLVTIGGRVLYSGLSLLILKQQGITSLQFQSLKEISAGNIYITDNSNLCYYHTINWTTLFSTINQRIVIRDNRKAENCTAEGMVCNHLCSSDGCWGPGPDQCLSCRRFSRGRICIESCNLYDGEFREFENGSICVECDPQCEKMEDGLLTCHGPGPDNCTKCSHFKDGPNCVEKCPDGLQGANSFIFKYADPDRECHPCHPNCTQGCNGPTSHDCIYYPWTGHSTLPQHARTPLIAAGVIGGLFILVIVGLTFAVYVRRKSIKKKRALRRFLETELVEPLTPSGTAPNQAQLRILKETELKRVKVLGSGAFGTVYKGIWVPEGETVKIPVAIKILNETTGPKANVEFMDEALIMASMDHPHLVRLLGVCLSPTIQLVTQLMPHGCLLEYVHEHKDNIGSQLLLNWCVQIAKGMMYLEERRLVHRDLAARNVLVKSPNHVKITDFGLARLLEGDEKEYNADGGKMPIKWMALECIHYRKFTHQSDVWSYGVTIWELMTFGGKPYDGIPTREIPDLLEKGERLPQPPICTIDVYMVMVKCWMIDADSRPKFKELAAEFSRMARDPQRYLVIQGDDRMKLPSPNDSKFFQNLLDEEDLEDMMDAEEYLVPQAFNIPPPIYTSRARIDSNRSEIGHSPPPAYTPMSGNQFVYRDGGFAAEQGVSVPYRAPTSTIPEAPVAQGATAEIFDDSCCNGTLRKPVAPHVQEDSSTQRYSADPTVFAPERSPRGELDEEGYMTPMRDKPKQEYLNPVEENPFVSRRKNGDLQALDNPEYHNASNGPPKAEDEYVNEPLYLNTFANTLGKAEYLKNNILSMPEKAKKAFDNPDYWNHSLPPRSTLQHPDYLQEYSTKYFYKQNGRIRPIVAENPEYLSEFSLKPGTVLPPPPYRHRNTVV
Experimental: as §2

cAMP = test: GloSensor cAMP assay in PC12 cells; assay type: cell-based, Rattus norvegicus
EGFR EGR1p = test: ERBBprofiler barcoded EGR1p pathway sensor, EGFR co-transfected; conditions: Rattus norvegicus, PC-12, 6 h, read-out: EGFR EGR1p IC50
HTR2A NFAT = test: ERBBprofiler barcoded NFAT pathway sensor, HTR2A co-transfected; conditions: Rattus norvegicus, PC-12, 6 h, read-out: HTR2A NFAT IC50
[2] = tested on: ERBB receptors, HTR2A, and downstream signaling pathways; test: ERBBprofiler multiplexed barcoded assay, overall statements across all receptor batches and sensors; conditions: 10 μM compound; PC12 cells; stimulation mix
phospho-ERK1/2 [3] = test: Western blot of p-ERK1/2 in A549 cells (EGF stimulated); assay type: cell-based; conditions: Homo sapiens, read-out: p-ERK1/2 IC50 (EGFR), Western blot quantification
Experimental: as §2

calcium = test: Fluo-4 AM calcium assay in PC12 cells; assay type: cell-based, Rattus norvegicus; conditions: stimulation mix
EGR1p (ERBB4) = test: EGR1p pathway sensor luciferase assay, ERBB4 transfected; assay type: cell-based, Rattus norvegicus; conditions: Rattus norvegicus, PC-12; PC12 cells; constant EGF-like domain 10 ng/mL; luciferase readout; read-out: ERBB4 downstream MAPK signaling IC50, EGR1p sensor luciferase
Experimental: as §1

HTR2A EGR1p = test: ERBBprofiler barcoded EGR1p pathway sensor, HTR2A co-transfected; conditions: Rattus norvegicus, PC-12, 6 h, read-out: HTR2A EGR1p IC50
ERBB4 EGR1p = test: ERBBprofiler barcoded EGR1p pathway sensor, ERBB4 co-transfected; conditions: Rattus norvegicus, PC-12, 6 h, read-out: ERBB4 EGR1p IC50
ERBB2/3 = ERBB2/3 (Homo sapiens, UniProt P04626+P21860); test: ERBBprofiler barcoded split TEV assay, ERBB2/3
ERBB2/3, sequence (P04626 23-1255): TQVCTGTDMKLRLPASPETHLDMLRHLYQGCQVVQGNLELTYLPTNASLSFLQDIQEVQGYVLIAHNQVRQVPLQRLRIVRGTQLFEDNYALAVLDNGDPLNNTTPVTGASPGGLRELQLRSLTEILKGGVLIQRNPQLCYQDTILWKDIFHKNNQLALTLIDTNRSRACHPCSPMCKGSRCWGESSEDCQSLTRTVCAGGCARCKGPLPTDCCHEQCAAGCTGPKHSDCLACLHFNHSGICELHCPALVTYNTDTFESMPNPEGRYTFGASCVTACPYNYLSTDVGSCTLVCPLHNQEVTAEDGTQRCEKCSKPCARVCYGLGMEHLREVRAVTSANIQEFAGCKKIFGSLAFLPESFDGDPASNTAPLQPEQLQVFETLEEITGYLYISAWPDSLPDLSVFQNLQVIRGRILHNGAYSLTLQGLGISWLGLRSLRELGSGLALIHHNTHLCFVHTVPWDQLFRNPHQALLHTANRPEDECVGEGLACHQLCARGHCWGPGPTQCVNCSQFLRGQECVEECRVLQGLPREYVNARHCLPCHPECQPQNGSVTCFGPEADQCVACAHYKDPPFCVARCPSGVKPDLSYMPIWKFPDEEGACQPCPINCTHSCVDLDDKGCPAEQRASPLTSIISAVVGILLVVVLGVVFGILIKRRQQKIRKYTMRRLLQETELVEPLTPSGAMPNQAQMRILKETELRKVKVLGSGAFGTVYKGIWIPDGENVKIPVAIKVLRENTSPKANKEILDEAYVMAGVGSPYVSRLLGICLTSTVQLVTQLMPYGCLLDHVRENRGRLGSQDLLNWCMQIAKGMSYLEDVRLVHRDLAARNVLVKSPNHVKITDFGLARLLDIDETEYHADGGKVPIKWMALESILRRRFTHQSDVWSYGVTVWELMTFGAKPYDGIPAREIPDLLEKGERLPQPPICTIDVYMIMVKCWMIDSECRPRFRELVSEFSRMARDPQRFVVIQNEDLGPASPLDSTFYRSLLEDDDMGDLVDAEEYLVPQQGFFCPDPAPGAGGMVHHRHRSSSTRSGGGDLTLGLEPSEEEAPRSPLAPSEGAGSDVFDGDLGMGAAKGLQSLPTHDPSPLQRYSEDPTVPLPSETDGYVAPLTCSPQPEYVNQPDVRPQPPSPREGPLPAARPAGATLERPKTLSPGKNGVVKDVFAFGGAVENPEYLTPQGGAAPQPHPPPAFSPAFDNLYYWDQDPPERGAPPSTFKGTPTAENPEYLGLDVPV
ERBB2/3, sequence (P21860 20-1342): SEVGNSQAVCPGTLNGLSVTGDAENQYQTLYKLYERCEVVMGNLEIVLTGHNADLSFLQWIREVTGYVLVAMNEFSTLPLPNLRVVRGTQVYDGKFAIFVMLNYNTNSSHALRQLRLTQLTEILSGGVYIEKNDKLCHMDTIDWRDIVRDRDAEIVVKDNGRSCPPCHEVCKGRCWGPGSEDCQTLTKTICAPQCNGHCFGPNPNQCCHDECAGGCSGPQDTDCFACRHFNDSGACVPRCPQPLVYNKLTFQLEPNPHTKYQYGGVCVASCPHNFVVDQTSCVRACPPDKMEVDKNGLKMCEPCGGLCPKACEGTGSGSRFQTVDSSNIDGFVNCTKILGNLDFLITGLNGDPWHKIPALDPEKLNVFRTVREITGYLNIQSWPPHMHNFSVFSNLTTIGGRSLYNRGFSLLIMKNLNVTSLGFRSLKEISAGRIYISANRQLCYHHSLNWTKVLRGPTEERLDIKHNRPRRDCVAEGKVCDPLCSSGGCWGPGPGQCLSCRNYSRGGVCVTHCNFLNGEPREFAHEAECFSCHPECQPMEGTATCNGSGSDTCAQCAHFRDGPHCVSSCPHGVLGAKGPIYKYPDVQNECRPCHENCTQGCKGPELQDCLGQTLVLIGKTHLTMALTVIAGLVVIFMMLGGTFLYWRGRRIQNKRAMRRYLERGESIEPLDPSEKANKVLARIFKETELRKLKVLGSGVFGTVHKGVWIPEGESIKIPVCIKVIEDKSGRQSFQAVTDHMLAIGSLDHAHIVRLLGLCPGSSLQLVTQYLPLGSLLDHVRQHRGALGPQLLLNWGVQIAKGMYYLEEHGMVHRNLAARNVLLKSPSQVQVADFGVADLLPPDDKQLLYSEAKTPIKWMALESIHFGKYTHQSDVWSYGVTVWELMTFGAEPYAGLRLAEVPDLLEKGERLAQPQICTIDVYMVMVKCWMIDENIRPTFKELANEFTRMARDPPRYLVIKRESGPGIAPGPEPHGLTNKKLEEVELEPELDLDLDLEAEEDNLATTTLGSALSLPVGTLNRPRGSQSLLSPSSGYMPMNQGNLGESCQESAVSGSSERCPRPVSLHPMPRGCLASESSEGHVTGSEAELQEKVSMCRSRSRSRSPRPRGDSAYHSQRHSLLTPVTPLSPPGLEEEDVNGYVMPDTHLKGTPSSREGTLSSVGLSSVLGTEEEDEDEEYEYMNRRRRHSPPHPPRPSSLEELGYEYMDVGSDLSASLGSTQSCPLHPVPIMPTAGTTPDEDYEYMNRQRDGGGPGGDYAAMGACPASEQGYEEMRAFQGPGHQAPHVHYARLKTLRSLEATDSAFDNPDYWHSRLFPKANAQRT

ERBB4, sequence (Q15303 26-1308): as the sequence (Q15303 26-1308) above

| Structure (SMILES) | IC50 (ERBB4) [nM] | IC50 (phospho-ERK1/2 [1]) [nM] | IC50 (HTR2A) [nM] | IC50 (phospho-ERBB4) [nM] | effect on cAMP levels (GloSensor) (cAMP) | IC50 (EGFR EGR1p) [nM] | IC50 (HTR2A NFAT) [nM] | CRE sensor response at high compound concentration (barcoded) [2] | IC50 (phospho-ERK1/2 [3]) [nM] | effect on calcium levels (Fluo-4 AM) (calcium) | IC50 (EGR1p (ERBB4)) [nM] | IC50 (HTR2A EGR1p) [nM] | IC50 (ERBB4 EGR1p) [nM] | IC50 (ERBB2/3) [nM] | EC50 (cAMP; Rattus norvegicus, PC-12, 0.25 h, constant stimulation mix, 15 min, cAMP increase) [nM] | compound concentration resulting in elevated cAMP (GloSensor) (cAMP; stimulation mix) [µM] |
| --- | --- | --- | --- | --- | --- | --- | --- | --- | --- | --- | --- | --- | --- | --- | --- | --- |
| COc1cc2ncnc(Nc3cccc(Cl)c3)c2cc1OC [AG1478, AG-1478 (Tyrphostin AG-1478)] | 258 | 147 | 17 | 100 | did not cause any increase | 23 | 64 | did not cause any increased CRE sensor activities | 91 | did not cause any increase | 378 | 32 | 47 | 202 |  |  |
| CCOc1cc2ncc(C#N)c(Nc3ccc(OCc4ccccn4)c(Cl)c3)c2cc1NC(=O)/C=C/[C@H]1CCCN1C [Pyrotinib] | 324 | 4990 | 184 | 344 |  | 261 | 576 | upregulation of the CRE sensor; also recorded: upregulated CRE sensor response | 6540 | but not calcium levels | 284 | 160 | 113 | 92 | 1920 | ≥ 3 |
